Test results reported in paper PMC7026418, “The kinase polypharmacology landscape of clinical PARP inhibitors” (Scientific Reports, 2020).
Like-named read-outs stand apart in the source and are kept apart here.

Legend:
Assay in all cases: biochemical
Parameters in all cases: DiscoveRx KINOMEscan active site-directed competition binding; percent of control kinase bound to immobilised ligand
[1] = molecular target: T1, ANKK1 (Homo sapiens, UniProt Q8NFD2)
T1 sequence (Q8NFD2 1-765): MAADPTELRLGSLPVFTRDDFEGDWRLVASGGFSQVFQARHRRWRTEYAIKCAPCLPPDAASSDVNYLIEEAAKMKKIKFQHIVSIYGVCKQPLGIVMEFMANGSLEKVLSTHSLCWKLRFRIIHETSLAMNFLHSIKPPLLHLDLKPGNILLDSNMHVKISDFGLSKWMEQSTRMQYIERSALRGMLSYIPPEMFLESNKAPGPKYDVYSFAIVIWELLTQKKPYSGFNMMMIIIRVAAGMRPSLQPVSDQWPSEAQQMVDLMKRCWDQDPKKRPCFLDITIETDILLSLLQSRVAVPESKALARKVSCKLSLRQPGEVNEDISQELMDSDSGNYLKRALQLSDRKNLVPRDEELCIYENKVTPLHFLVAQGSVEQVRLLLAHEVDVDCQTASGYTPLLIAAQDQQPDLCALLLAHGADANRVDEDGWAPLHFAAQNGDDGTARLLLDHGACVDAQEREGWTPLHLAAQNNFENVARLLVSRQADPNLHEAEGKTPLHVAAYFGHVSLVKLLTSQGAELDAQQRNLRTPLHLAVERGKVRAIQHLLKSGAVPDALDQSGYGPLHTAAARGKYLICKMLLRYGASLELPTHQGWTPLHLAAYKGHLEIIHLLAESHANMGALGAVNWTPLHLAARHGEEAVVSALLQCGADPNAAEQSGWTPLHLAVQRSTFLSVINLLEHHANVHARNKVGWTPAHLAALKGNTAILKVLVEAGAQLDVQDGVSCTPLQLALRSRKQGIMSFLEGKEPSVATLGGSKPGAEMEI

[2] = molecular target: AAK1 (Homo sapiens, UniProt Q2M2I8)
[3] = molecular target: PIP5K1A (Homo sapiens, UniProt Q99755)
Sequence of PIP5K1A (Q99755 whole entry): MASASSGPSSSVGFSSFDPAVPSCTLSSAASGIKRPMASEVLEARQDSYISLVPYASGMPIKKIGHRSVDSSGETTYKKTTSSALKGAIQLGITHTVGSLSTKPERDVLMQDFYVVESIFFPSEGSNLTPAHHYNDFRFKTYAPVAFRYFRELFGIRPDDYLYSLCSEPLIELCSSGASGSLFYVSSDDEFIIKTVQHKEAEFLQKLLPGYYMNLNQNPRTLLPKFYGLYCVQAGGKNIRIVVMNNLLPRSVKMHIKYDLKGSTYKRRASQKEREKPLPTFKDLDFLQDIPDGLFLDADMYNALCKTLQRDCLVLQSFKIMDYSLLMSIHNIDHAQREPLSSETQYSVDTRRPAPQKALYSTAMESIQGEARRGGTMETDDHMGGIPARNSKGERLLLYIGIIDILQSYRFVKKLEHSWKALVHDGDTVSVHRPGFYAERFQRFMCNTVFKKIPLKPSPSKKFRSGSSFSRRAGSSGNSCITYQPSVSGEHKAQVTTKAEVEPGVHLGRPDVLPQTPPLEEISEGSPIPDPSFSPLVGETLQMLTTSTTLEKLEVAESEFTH

[4] = molecular target: CSF1R (Homo sapiens, UniProt P07333)
[5] = molecular target: T2, BRK (Homo sapiens, UniProt Q13882)
T2 construct: gene PTK6
T2 sequence (Q13882 whole entry): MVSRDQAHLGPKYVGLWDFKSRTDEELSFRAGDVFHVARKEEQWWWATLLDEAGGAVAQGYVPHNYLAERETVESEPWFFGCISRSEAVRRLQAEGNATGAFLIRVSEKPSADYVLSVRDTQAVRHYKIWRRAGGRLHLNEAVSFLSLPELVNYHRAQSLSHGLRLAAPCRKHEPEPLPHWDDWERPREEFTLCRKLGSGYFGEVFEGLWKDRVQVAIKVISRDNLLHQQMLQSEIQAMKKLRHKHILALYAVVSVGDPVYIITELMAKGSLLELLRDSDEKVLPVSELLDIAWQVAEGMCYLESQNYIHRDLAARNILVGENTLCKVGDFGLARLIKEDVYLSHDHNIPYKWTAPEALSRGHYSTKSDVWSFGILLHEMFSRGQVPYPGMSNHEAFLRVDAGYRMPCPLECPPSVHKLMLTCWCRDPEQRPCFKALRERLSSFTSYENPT

[6] = molecular target: PDGFRA (Homo sapiens, UniProt P16234)
Sequence of PDGFRA (P16234 whole entry): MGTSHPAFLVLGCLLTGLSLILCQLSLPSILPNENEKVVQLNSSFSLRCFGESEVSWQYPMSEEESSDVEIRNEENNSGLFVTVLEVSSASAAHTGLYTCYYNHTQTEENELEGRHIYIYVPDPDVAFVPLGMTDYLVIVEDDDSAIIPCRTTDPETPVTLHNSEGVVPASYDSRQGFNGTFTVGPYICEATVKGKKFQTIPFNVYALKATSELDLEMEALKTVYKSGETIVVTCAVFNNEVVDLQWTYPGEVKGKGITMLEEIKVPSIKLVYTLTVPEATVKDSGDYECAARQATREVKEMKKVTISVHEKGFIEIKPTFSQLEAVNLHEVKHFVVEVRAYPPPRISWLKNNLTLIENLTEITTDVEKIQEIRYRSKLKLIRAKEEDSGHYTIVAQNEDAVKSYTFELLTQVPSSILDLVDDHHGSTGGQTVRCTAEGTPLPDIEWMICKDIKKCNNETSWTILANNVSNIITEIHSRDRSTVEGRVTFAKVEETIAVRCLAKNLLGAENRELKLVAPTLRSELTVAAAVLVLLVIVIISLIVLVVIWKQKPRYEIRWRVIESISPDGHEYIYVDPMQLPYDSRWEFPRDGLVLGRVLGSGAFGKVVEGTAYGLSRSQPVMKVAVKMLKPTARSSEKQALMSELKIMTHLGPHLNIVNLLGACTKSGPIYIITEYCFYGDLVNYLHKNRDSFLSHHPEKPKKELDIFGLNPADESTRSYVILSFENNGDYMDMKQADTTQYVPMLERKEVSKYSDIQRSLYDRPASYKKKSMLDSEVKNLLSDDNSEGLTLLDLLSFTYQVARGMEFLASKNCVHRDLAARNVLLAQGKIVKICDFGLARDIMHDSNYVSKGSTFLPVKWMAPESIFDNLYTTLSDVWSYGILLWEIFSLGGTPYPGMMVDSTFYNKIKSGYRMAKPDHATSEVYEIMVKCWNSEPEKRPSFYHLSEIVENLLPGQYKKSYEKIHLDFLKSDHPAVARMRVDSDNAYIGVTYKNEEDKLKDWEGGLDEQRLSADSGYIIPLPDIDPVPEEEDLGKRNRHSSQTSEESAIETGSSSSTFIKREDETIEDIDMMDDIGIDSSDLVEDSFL

[7] = molecular target: T3, EPHB3 (Homo sapiens, UniProt P54753)
T3 sequence (P54753 1-998): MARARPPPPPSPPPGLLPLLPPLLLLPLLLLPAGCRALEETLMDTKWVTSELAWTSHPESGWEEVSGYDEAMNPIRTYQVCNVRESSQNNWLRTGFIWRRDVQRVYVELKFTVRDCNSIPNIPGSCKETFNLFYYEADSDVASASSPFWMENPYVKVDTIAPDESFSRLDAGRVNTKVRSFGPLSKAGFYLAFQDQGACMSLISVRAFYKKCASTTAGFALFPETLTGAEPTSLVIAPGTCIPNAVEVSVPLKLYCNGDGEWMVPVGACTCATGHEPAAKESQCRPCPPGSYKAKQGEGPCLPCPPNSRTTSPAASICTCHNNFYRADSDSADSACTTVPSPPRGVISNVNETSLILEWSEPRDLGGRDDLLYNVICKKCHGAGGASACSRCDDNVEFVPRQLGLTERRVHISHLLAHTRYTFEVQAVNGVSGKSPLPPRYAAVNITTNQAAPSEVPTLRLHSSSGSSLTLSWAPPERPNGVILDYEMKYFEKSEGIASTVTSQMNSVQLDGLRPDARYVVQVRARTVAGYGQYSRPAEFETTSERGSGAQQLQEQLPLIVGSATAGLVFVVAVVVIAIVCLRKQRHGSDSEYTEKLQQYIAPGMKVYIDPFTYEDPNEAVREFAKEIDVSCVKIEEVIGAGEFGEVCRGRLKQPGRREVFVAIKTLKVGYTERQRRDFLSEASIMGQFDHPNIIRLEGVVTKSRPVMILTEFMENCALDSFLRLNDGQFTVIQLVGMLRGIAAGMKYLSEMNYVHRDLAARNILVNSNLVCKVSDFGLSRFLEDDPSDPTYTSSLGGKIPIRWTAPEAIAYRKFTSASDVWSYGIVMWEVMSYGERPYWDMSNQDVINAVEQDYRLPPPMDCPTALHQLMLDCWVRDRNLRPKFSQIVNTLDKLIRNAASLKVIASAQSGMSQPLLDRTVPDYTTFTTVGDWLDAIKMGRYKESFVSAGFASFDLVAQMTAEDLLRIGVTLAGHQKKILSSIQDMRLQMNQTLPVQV

[8] = molecular target: CHEK2 (Homo sapiens, UniProt O96017)
Sequence of CHEK2 (O96017 whole entry): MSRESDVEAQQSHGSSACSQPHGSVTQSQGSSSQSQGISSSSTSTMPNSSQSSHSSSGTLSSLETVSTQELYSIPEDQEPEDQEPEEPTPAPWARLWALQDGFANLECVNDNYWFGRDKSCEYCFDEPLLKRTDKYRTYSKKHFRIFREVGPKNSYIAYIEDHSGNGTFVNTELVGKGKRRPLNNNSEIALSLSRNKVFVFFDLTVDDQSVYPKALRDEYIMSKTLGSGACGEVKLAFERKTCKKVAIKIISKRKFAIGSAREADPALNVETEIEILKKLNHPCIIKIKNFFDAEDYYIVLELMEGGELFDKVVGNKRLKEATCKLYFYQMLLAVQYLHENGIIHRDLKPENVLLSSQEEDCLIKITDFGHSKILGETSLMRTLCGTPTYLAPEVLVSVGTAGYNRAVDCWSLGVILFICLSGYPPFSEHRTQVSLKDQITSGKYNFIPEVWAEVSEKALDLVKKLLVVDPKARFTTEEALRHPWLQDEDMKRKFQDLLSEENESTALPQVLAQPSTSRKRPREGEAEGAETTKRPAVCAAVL

[9] = molecular target: PDGFRB (Homo sapiens, UniProt P09619)
Sequence of PDGFRB (P09619 whole entry): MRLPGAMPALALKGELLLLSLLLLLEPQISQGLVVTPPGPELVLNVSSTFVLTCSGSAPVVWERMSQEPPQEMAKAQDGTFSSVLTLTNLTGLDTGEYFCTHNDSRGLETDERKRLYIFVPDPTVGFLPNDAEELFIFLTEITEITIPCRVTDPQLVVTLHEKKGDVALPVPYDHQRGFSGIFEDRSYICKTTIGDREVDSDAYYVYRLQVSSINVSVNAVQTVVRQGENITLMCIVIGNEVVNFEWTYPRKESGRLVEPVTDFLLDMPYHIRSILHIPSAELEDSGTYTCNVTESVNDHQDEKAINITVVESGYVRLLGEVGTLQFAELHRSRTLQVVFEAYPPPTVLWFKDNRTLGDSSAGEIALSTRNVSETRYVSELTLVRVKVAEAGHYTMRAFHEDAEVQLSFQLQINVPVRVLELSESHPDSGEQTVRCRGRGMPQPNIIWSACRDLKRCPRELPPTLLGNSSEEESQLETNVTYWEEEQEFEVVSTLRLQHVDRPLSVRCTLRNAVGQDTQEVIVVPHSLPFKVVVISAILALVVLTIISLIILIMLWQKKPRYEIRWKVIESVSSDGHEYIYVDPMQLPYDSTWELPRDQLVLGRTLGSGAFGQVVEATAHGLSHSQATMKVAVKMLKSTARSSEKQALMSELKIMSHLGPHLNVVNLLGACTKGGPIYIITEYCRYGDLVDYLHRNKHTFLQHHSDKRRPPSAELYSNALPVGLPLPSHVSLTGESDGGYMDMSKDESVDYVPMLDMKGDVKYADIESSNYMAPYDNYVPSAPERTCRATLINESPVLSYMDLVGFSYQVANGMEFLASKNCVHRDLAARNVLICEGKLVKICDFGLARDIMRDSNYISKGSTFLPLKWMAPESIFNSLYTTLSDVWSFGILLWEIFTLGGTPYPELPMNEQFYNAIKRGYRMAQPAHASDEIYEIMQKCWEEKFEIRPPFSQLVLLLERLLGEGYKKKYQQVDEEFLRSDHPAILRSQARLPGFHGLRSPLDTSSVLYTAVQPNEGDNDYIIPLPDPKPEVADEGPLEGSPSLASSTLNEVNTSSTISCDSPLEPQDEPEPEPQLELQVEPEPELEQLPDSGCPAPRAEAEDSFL

[10] = molecular target: MKNK2 (Homo sapiens, UniProt Q9HBH9)
Sequence of MKNK2 (Q9HBH9 whole entry): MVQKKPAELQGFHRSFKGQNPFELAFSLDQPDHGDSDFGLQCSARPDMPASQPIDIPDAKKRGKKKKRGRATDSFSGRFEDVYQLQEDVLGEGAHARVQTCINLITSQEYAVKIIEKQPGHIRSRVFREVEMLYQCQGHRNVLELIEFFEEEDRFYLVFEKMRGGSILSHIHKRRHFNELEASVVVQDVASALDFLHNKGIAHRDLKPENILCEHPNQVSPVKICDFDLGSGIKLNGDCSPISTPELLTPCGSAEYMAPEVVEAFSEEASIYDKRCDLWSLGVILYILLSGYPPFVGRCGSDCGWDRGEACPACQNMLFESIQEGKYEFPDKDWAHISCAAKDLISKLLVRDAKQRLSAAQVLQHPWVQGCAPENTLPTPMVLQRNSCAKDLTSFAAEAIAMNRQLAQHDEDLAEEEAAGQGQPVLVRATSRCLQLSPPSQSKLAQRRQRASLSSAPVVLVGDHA

[11] = read-out: Talazoparib (BMN 673) / %Ctrl @ 10000nM
[12] = read-out: Olaparib / %Ctrl @ 10000nM
[13] = read-out: Rucaparib / %Ctrl @ 10000nM, binding competition, % of control
[14] = read-out: Niraparib (MK-4827) / %Ctrl @ 10000nM

Cn1ncnc1[C@H]1c2n[nH]c(=O)c3cc(F)cc(c23)N[C@@H]1c1ccc(F)cc1 [Talazoparib]
percent of control binding at 10 µM [1, 11]: 100%
percent of control binding at 10 µM [2, 11]: 93%
percent of control binding at 10 µM [3, 11]: 88%
percent of control binding at 10 µM [4, 11]: 99%
percent of control binding at 10 µM [5, 11]: 100%
percent of control binding at 10 µM [6, 11]: 99%
percent of control binding at 10 µM [7, 11]: 100%
percent of control binding at 10 µM [8, 11]: 93%
percent of control binding at 10 µM [9, 11]: 99%
percent of control binding at 10 µM [10, 11]: 80%

O=C(c1cc(Cc2n[nH]c(=O)c3ccccc23)ccc1F)N1CCN(C(=O)C2CC2)CC1 [Olaparib]
percent of control binding at 10 µM [1, 12]: 90%
percent of control binding at 10 µM [2, 12]: 100%
percent of control binding at 10 µM [3, 12]: 100%
percent of control binding at 10 µM [4, 12]: 95%
percent of control binding at 10 µM [5, 12]: 88%
percent of control binding at 10 µM [6, 12]: 75%
percent of control binding at 10 µM [7, 12]: 87%
percent of control binding at 10 µM [8, 12]: 94%
percent of control binding at 10 µM [9, 12]: 96%
percent of control binding at 10 µM [10, 12]: 87%

CNCc1ccc(-c2[nH]c3cc(F)cc4c3c2CCNC4=O)cc1 [Rucaparib]
percent of control binding at 10 µM [1, 13]: 71%
percent of control binding at 10 µM [2, 13]: 82%
percent of control binding at 10 µM [3, 13]: 100%
percent of control binding at 10 µM [4, 13]: 94%
percent of control binding at 10 µM [5, 13]: 99%
percent of control binding at 10 µM [6, 13]: 53%
percent of control binding at 10 µM [7, 13]: 99%
percent of control binding at 10 µM [8, 13]: 76%
percent of control binding at 10 µM [9, 13]: 98%
percent of control binding at 10 µM [10, 13]: 38%

NC(=O)c1cccc2cn(-c3ccc([C@@H]4CCCNC4)cc3)nc12 [Niraparib]
percent of control binding at 10 µM [1, 14]: 100%
percent of control binding at 10 µM [2, 14]: 83%
percent of control binding at 10 µM [3, 14]: 100%
percent of control binding at 10 µM [4, 14]: 91%
percent of control binding at 10 µM [5, 14]: 91%
percent of control binding at 10 µM [6, 14]: 69%
percent of control binding at 10 µM [7, 14]: 82%
percent of control binding at 10 µM [8, 14]: 89%
percent of control binding at 10 µM [9, 14]: 90%
percent of control binding at 10 µM [10, 14]: 71%
